One series has as its system ZEAMX. The series can be described thus: F. Post-emergence effects on crop plants (Tables F). Type of series: in vivo, Zea mays. Particulars: crop plant. The gist of the method:
(§1)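 Plants were grown in sandy loam in a greenhouse and sprayed post-emergence at the single-leaf stage, 2–3 weeks after sowing. Visual damage was scored after ca. 3 weeks against untreated controls (0% = as control, 100% = dead).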

For series [1], the system named is ECHCG. Description: A. Herbicidal pre-emergence action on harmful plants (Tables A). Conditions: visual grading after ca. 3 weeks vs untreated controls, 100% = plants have died off, 0% = as control plants. Type of series: in vivo, Echinochloa crus-galli. The gist of the method: (§2)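 Greenhouse pre-emergence test: compound applied to the soil surface at 1280 g/ha or below, and herbicidal effect rated visually at ca. 3 weeks on a 0–100% scale against untreated plants.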

A further series relates to POAAN. Described as above. Type of series: in vivo, Poa annua. The gist of the method: as §2
A further series concerns STEME. Described as above. The series is classed as in vivo, Stellaria media. Conditions: visual grading after ca. 3 weeks vs untreated controls, 100% = plants have died off, 0% = as control plants. In a few lines:
as §2

The test system of a further series is DIGSA. The series can be described thus: C. Herbicidal pre-emergence action, weed and crop plants (Tables C). Type of series: in vivo, Digitaria sanguinalis. Conditions: application rate 320 g/ha; Table C5a. The source says: Seeds of mono- and dicotyledonous weed plants and crop plants were sown, in plastic or organic planting pots, in sandy loam and covered with soil. The compounds according to the invention, formulated in the form of wettable powders (WP) or as emulsifiable concentrates (EC), were applied to the surface of the covering soil as aqueous suspension or emulsion, with the addition of 0.5% of an additive, at an application rate of 6001 of water/ha (converted). Following treatment, the pots were placed in a greenhouse and kept under optimum growth conditions for the test plants. The visual grading of the damage to the test plants was carried out after ca. 3 weeks in comparison to untreated controls (herbicidal effect in percent (%): 100% effect = plants have died off, 0% effect = as control plants). Tables C1 to C12 below show the effects of selected compounds of the general formula (I) according to table 1 on various harmful plants and an application rate corresponding to 320 g/ha or below obtained by the experimental procedure mentioned above. Table C1: pre-emergence activity at 320g/ha against KCHSC in %

Another series relates to TRZAS. Description: F. Post-emergence effects on crop plants (Tables F). Type of series: in vivo, Triticum aestivum. Conditions: crop plant. The gist of the method:
as §1

The test system of series [2] is ECHCG. Description: B. Herbicidal post-emergence action on harmful plants (Tables B). The series is classed as in vivo, Echinochloa crus-galli. The gist of the method:
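Activity was scored visually as % damage (100% = dead, 0% = like untreated) about 3 weeks after treatment. Plants at the one-leaf stage, 2-3 weeks old, were sprayed with WP/EC formulations plus 0.5% additive (600 L/ha water, up to 1280 g/ha). Plants were grown in sandy loam in a greenhouse.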

Another series concerns VIOTR. Description: C. Herbicidal pre-emergence action, weed and crop plants (Tables C). The series is classed as in vivo, Viola tricolor. Conditions: application rate 320 g/ha; Table C12a. In a few lines:
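Seeds were sown in sandy loam and covered with soil. WP or EC formulations were sprayed onto the soil surface as aqueous suspension or emulsion with 0.5% additive, at rates of 320 g/ha or below. Plants were kept in a greenhouse, and damage was scored visually after about 3 weeks as % effect versus untreated controls (100% = dead, 0% = like control).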

The subject of another series is GLXMA. Description: D. Pre-emergence effects on crop plants (Tables D). The series is classed as in vivo, Glycine max. Particulars: crop plant. The gist of the method: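 Pre-emergence soil-surface treatment at 320 g/ha or lower, using wettable-powder or emulsifiable-concentrate formulations in water plus 0.5% additive, over freshly sown seeds in covered sandy loam. Damage was rated visually as percent versus untreated pots (100% = dead plants) after about 3 weeks of greenhouse growth.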

[3] abbreviates: application rate 80 g/ha, Table A7c.
Setting [4] is: application rate 320 g/ha, Table A7b.
Setting [5] is: application rate 1280 g/ha, visual grading after ca. 3 weeks vs untreated controls, 100% = plants have died off, 0% = as control plants.
Where [6] appears, read: application rate 1280 g/ha, Table B2a.
The mark [7] stands for this setting: application rate 320 g/ha, Table D4a.

Take `Cn1cc(C(=O)N2CCCC2Cc2ccccc2F)c(COc2ccccc2)n1` (racemic) [Example I-006]: the “post-emergence activity against ZEAMX in %” value is recorded as 10% in the series with ZEAMX (application rate 80 g/ha) and 20% in the series on ZEAMX (application rate 320 g/ha). Further, in the series on ECHCG [1] (application rate 1280 g/ha), the “pre-emergence activity against ECHCG” value stood at 90%. Besides, the “pre-emergence activity against POAAN” value with POAAN (setting [3]), in the series with POAAN (setting [4]) and in the series on POAAN (setting [5]) was 100% each time. Also, the “pre-emergence activity against STEME” value in the series on STEME (application rate 320 g/ha) and with STEME (application rate 1280 g/ha) was 90% each time. For the same molecule, the “pre-emergence activity against DIGSA” value in the series with DIGSA is 100%. The “post-emergence activity against TRZAS in %” value with TRZAS (application rate 80 g/ha) and in the series on TRZAS (application rate 320 g/ha) was 20% each time. Moreover, the “post-emergence activity against ECHCG” value in the series with ECHCG [2] (setting [6]) came to 100%.
In the case of `COCc1nn2c(c1C(=O)N1CCCC1Cc1ccccc1F)CCC2` (racemic) [Example I-022], the “post-emergence activity against ZEAMX in %” value in the series with ZEAMX (application rate 80 g/ha) and with ZEAMX (application rate 320 g/ha) was 0% in each case. In the series with VIOTR, the “pre-emergence activity against VIOTR” value was determined as 80%. For the same molecule, the “pre-emergence activity against ECHCG” value with ECHCG [1] (application rate 320 g/ha) was 90%; with ECHCG [1] (application rate 1280 g/ha), 100%. In addition, the “pre-emergence activity against POAAN” value in the series on POAAN (setting [3]) is on record as 90%; in the series with POAAN (setting [4]), 100%; in the series with POAAN (setting [5]), 100%. For the same molecule, the “pre-emergence activity against GLXMA” value with GLXMA (application rate 80 g/ha, Table D4b) stood at 0%; with GLXMA (setting [7]), 0%. For the same molecule, the “pre-emergence activity against DIGSA” value in the series on DIGSA is 90%. In addition, the “post-emergence activity against TRZAS in %” value in the series on TRZAS (application rate 80 g/ha) and in the series with TRZAS (application rate 320 g/ha) was 0% in each case.
Turning to `COCc1c(C(=O)N2CCCC2Cc2ccccc2Cl)cnn1C` (racemic) [Example I-170], the “post-emergence activity against ZEAMX in %” value with ZEAMX (application rate 80 g/ha) turned out to be 0%. The “pre-emergence activity against ECHCG” value with ECHCG [1] (application rate 80 g/ha), in the series on ECHCG [1] (application rate 320 g/ha) and in the series with ECHCG [1] (application rate 1280 g/ha) was 90% each time. Moreover, the “pre-emergence activity against POAAN” value in the series with POAAN (setting [3]), in the series on POAAN (setting [4]) and with POAAN (setting [5]) was 100% in each case. Further, the “pre-emergence activity against GLXMA” value in the series with GLXMA (setting [7]) amounted to 0%. The “post-emergence activity against TRZAS in %” value in the series with TRZAS (application rate 80 g/ha) stood at 20%. Besides, the “post-emergence activity against ECHCG” value worked out at 90% with ECHCG [2] (application rate 320 g/ha, Table B2b) and 90% in the series on ECHCG [2] (setting [6]).
With `COCc1c(C(=O)N2CCCC2Cc2ccccc2F)cnn1C` (single isomer, unassigned) [Example I-157], the “post-emergence activity against ZEAMX in %” value with ZEAMX (application rate 80 g/ha) and in the series on ZEAMX (application rate 320 g/ha) was 0% each time. Besides, in the series on VIOTR, the “pre-emergence activity against VIOTR” value amounted to 90%. The “pre-emergence activity against ECHCG” value in the series on ECHCG [1] (application rate 80 g/ha), with ECHCG [1] (application rate 320 g/ha) and in the series with ECHCG [1] (application rate 1280 g/ha) was 100% in each case. For the same molecule, the “pre-emergence activity against POAAN” value in the series with POAAN (setting [3]), with POAAN (setting [4]) and with POAAN (setting [5]) was 100% throughout. Besides, the “pre-emergence activity against GLXMA” value with GLXMA (setting [7]) is 0%. The “pre-emergence activity against STEME” value worked out at 90% in the series with STEME (application rate 320 g/ha) and 100% in the series with STEME (application rate 1280 g/ha). Moreover, in the series with DIGSA, the “pre-emergence activity against DIGSA” value is listed as 90%. Moreover, the “post-emergence activity against TRZAS in %” value is 0% in the series with TRZAS (application rate 80 g/ha) and 20% in the series on TRZAS (application rate 320 g/ha).
